{"source": "ChEMBL document CHEMBL1135518", "about": "(J Med Chem, 2002)", "key": {"[1]": {"molecular_target": "5-hydroxytryptamine receptor 2A (Rattus norvegicus, UniProt P14842)", "sequence (P14842 whole entry)": "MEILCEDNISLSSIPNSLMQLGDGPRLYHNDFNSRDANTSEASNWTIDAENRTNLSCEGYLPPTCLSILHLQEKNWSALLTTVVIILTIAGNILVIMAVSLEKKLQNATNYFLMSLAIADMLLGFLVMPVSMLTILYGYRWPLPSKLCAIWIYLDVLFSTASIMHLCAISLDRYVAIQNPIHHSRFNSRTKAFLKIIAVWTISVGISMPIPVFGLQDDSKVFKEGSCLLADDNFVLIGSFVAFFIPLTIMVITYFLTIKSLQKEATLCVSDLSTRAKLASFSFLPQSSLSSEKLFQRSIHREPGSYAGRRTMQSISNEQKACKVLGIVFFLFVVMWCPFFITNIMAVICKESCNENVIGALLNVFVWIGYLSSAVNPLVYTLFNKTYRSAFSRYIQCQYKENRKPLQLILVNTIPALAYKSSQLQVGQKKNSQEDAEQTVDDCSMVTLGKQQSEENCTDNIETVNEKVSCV", "assay": "The binding affinity at 5-hydroxytryptamine 2A receptor was determined using [3H]ketanserin"}, "[2]": {"molecular_target": "T1, Adrenergic receptor alpha-2 (Rattus norvegicus, UniProt P22086+P19328+P22909)", "T1 sequence (P22086 whole entry)": "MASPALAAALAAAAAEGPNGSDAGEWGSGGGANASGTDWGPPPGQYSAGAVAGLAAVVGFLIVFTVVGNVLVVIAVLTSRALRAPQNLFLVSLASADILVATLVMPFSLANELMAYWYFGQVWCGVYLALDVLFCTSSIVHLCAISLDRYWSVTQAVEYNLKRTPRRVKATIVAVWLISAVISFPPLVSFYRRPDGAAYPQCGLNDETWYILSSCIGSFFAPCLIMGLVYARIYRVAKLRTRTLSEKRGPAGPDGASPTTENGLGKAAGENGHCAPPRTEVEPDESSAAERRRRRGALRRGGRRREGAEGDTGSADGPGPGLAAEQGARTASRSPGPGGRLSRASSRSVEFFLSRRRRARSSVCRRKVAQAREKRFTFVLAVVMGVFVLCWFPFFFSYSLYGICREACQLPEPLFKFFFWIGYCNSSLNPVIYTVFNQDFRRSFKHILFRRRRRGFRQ", "T1 sequence (P19328 whole entry)": "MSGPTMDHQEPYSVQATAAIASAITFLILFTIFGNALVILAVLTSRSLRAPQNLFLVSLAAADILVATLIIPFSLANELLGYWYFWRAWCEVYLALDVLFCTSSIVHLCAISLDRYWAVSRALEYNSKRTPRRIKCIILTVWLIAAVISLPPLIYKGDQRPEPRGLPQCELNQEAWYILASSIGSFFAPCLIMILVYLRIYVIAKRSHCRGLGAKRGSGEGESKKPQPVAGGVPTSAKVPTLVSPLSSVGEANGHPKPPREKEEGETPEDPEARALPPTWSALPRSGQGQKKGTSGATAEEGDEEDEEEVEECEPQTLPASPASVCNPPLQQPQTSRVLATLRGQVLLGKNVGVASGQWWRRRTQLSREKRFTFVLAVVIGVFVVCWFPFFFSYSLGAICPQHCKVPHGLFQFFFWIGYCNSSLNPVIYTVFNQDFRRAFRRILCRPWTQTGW", "T1 sequence (P22909 whole entry)": "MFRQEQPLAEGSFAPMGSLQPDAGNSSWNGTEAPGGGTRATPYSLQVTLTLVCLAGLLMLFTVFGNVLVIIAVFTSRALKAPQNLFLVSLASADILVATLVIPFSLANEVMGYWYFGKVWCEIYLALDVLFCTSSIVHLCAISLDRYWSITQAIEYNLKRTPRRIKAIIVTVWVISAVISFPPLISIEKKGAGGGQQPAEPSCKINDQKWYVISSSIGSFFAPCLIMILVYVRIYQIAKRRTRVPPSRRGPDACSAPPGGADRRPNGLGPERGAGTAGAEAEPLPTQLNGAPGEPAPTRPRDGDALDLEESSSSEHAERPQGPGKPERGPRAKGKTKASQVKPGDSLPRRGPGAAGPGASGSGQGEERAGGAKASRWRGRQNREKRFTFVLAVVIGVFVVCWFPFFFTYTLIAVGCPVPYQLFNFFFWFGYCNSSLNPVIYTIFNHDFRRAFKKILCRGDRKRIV", "assay": "The binding affinity at the Alpha-2 adrenergic receptor determined using [3H]RX-821002; Not tested", "assay_type": "protein assay"}, "[3]": {"molecular_target": "T2, Adrenergic receptor alpha-1 (Rattus norvegicus, UniProt P15823+P23944+P43140)", "T2 sequence (P15823 whole entry)": "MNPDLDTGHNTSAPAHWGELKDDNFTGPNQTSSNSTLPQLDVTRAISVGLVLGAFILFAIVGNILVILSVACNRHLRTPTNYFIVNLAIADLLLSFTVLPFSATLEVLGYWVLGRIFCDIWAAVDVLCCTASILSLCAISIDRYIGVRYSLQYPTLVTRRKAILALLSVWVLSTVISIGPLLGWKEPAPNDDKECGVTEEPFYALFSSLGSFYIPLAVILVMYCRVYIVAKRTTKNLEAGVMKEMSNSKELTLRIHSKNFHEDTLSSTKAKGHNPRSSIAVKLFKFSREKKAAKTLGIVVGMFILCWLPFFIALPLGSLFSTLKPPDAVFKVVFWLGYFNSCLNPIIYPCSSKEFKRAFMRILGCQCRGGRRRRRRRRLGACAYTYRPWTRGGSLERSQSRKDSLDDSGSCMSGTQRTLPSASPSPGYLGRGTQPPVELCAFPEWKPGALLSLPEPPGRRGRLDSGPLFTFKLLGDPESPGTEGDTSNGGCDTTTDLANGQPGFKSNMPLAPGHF", "T2 sequence (P23944 whole entry)": "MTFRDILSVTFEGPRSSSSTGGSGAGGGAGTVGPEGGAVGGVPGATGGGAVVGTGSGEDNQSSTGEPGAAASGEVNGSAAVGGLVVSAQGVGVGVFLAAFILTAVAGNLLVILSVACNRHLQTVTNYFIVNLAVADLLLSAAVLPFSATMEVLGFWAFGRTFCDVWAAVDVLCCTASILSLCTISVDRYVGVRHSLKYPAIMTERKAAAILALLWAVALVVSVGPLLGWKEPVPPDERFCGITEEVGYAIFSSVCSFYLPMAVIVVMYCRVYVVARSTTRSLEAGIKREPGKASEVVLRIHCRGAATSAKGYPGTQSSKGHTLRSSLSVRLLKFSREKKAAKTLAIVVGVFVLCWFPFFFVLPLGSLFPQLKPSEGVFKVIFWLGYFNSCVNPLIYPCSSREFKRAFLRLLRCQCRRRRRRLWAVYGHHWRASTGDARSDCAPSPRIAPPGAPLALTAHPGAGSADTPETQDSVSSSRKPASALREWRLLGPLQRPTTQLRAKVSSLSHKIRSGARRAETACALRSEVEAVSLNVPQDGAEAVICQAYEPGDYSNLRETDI", "T2 sequence (P43140 whole entry)": "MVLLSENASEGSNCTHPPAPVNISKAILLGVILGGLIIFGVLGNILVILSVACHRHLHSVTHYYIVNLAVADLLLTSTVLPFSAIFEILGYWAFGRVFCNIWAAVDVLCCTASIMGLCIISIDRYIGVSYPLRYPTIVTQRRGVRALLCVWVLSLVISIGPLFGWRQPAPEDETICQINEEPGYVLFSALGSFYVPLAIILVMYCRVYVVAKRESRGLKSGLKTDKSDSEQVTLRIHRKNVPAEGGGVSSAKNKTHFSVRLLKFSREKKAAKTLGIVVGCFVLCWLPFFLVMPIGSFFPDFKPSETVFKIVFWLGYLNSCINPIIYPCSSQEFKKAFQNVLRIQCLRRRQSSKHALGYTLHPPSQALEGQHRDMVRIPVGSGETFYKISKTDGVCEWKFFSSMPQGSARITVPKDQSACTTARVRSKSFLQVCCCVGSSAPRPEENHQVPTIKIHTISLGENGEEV", "assay": "The binding affinity at Alpha-1 adrenergic receptor determined using [3H]prazosin", "assay_type": "protein assay"}, "[4]": {"assay": "The binding affinity at the Histamine H1 receptor determined using [3H]pyrilamine", "design": "species or system Cavia porcellus"}, "[5]": {"molecular_target": "T3, 5-hydroxytryptamine receptor 2C (Rattus norvegicus, UniProt P08909)", "T3 sequence (P08909 whole entry)": "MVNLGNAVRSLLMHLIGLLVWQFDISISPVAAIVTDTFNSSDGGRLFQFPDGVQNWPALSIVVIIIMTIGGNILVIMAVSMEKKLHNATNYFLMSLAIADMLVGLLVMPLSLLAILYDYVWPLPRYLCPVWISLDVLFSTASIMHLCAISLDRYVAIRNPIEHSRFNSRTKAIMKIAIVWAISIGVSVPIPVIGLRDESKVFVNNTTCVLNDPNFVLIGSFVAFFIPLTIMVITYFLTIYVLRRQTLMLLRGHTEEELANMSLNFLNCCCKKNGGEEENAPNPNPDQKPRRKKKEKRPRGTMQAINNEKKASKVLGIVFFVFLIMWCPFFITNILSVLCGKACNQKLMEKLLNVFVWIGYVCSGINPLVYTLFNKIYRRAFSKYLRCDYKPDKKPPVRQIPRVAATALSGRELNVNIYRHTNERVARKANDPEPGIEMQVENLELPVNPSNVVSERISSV", "assay": "The binding affinity at 5-hydroxytryptamine 2C receptor was determined using [3H]mesulergine"}, "[6]": {"molecular_target": "Norepinephrine transporter (Rattus norvegicus, UniProt Q9WTR4)", "sequence (Q9WTR4 whole entry)": "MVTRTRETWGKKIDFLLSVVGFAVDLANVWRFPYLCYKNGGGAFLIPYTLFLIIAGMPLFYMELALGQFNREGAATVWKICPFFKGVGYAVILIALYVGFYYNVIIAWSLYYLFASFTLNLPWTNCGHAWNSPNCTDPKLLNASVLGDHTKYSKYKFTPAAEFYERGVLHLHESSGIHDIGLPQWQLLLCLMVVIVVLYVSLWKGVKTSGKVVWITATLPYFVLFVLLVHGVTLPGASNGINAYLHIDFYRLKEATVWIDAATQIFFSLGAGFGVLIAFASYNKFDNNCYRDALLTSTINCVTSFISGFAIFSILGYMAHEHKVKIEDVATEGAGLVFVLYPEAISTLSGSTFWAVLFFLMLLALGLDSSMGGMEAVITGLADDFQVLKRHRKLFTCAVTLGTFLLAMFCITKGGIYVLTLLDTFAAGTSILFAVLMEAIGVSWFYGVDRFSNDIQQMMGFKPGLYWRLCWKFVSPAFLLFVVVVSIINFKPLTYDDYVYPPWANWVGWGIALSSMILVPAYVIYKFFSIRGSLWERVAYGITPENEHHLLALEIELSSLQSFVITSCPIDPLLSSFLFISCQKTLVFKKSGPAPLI", "assay": "The binding affinity at the Norepinephrine transporter reuptake sites determined using competition binding assay"}, "Rattus norvegicus [7]": {"system": "Rattus norvegicus", "assay": "The increase in the extracellular levels of DOPAC in the rat ventral hippocampus at a dose of 5.0 mg/kg sc measured by in vivo microdialysis", "assay_type": "functional", "conditions": "route subcutaneous"}, "D(4) dopamine receptor": {"molecular_target": "T4, D(4) dopamine receptor (Homo sapiens, UniProt P21917)", "T4 sequence (P21917 whole entry)": "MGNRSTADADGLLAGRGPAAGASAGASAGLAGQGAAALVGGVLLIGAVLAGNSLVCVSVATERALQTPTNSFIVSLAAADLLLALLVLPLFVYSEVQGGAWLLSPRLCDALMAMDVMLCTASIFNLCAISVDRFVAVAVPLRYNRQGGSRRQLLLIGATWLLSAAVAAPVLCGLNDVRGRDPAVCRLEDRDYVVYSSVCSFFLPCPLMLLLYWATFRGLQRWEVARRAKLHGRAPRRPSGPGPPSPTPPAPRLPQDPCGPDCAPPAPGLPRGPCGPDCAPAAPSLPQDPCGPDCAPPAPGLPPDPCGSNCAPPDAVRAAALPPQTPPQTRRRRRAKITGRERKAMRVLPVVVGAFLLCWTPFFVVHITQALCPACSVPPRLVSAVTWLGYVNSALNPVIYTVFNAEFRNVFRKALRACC", "assay": "The binding affinity at the Dopamine receptor D4 determined using [3H]YM-09151-2"}, "Rattus norvegicus [8]": {"system": "Rattus norvegicus", "assay": "The increase in the extracellular levels of 5-HT in the rat ventral hippocampus at a dose of 5.0 mg/kg sc measured by in vivo microdialysis", "assay_type": "functional", "conditions": "route subcutaneous"}, "[9]": {"molecular_target": "Sodium-dependent serotonin transporter (Rattus norvegicus, UniProt P31652)", "sequence (P31652 whole entry)": "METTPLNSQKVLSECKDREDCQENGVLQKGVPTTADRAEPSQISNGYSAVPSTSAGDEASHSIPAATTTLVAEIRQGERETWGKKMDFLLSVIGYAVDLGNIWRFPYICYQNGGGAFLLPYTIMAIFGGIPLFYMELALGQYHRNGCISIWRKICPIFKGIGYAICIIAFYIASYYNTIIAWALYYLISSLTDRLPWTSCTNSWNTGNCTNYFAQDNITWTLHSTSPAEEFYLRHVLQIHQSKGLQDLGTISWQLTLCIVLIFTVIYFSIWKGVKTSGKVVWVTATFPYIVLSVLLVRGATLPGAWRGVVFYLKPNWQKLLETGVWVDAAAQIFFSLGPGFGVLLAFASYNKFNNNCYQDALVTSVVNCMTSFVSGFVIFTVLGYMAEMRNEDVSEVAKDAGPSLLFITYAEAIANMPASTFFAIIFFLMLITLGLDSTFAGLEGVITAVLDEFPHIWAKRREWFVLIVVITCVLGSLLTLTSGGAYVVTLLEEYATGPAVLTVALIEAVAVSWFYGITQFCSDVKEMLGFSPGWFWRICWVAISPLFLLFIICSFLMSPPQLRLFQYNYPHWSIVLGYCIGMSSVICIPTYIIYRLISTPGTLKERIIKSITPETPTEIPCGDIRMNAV", "assay": "The binding affinity at the 5-HT reuptake sites determined using competition binding assay"}}, "data": [{"smiles": "CN1CCN2c3c(cccc3OS(=O)(=O)C(F)(F)F)Cc3ccccc3C2C1", "note": "(racemic)", "values": [{"measurement": "IC50", "setting": "[1]", "value": 277, "unit": "nM"}, {"measurement": "IC50", "setting": "[2]", "value": 1000, "unit": "nM"}]}, {"smiles": "CN1CCN2c3c(O)cccc3Cc3ccccc3C2C1", "note": "(racemic)", "values": [{"measurement": "IC50", "setting": "[1]", "value": 12, "unit": "nM"}, {"measurement": "IC50", "setting": "[2]", "value": 1000, "unit": "nM"}, {"measurement": "Ki", "setting": "[3]", "value": 1000, "unit": "nM"}, {"measurement": "Ki", "setting": "[4]", "value": 21, "unit": "nM"}, {"measurement": "Ki", "setting": "[5]", "value": 2, "unit": "nM"}]}, {"smiles": "CN1CCN2c3ccccc3Cc3ccccc3C2C1", "note": "(racemic) [MIANSERIN]", "values": [{"measurement": "Ki", "setting": "[4]", "value": 4.2, "unit": "nM"}, {"measurement": "IC50", "setting": "[6]", "value": 22, "unit": "nM"}, {"measurement": "Increase", "setting": "Rattus norvegicus [7]", "value": 160, "unit": "%"}]}, {"smiles": "CN1CCN2c3ncccc3Cc3ccccc3C2C1", "note": "(racemic) [MIRTAZAPINE]", "values": [{"measurement": "Ki", "setting": "[3]", "value": 1050, "unit": "nM"}, {"measurement": "Ki", "setting": "D(4) dopamine receptor", "value": "> 25", "unit": "nM"}, {"measurement": "Ki", "setting": "[4]", "value": 5.1, "unit": "nM"}, {"measurement": "IC50", "setting": "[6]", "value": 260, "unit": "nM"}, {"measurement": "Increase", "setting": "Rattus norvegicus [8]", "value": 180, "unit": "%"}, {"measurement": "Increase", "setting": "Rattus norvegicus [7]", "value": 200, "unit": "%"}, {"measurement": "IC50", "setting": "[9]", "value": "> 100", "unit": "nM"}, {"measurement": "Ki", "setting": "[5]", "value": 5.5, "unit": "nM"}]}]}
